Measured values from ChEMBL document CHEMBL4507281, “Data for DCP probe BI-4394” (2021).

Key:
[1] = target: Protein kinase C delta type (Homo sapiens) (UniProt Q05655); settings: Compound concentration 100.0 nM
[2] = target: Mitogen-activated protein kinase kinase kinase 15 (Homo sapiens) (UniProt Q6ZN16); settings: Compound concentration 100.0 nM
[3] = tested on: ALK tyrosine kinase receptor (Homo sapiens), Q9UM73 [L1196M]; settings: Compound concentration 100.0 nM
[4] = target: Homeodomain-interacting protein kinase 4 (Homo sapiens) (UniProt Q8NE63); settings: Compound concentration 100.0 nM
[5] = target: Calcium/calmodulin-dependent protein kinase type II subunit gamma (Homo sapiens) (UniProt Q13555); settings: Compound concentration 100.0 nM
[6] = target: T1, Tyrosine-protein kinase JAK3 (Homo sapiens) (UniProt P52333); settings: Compound concentration 100.0 nM
T1 sequence (whole entry): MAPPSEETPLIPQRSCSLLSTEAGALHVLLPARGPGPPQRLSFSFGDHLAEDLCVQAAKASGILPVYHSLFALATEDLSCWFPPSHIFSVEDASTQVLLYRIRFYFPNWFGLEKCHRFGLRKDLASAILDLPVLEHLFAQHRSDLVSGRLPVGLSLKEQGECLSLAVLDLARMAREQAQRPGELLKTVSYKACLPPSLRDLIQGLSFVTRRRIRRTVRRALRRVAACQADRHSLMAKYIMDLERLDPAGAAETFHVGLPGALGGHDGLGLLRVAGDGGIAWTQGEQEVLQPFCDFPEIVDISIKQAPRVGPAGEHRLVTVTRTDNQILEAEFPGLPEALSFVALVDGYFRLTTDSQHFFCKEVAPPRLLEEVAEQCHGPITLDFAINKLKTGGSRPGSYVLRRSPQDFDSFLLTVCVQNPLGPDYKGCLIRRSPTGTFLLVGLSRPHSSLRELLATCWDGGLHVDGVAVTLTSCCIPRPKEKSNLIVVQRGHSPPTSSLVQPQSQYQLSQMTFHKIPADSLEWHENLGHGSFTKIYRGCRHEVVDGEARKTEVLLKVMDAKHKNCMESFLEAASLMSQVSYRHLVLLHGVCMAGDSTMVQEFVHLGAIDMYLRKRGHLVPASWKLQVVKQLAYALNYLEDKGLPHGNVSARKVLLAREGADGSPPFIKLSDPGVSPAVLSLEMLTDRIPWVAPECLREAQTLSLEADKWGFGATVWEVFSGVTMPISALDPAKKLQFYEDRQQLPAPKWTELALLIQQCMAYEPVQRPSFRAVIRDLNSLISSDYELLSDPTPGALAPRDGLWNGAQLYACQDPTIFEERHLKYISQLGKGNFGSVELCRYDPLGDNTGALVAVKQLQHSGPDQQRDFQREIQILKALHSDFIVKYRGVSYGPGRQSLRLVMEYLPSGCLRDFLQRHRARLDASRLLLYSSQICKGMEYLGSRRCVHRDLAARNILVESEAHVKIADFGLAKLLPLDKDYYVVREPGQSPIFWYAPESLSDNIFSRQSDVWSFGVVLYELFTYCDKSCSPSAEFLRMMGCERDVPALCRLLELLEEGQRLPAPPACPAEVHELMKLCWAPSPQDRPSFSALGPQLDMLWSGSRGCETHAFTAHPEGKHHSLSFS

[7] = target: Ribosomal protein S6 kinase alpha-2 (Homo sapiens) (UniProt Q15349); settings: Compound concentration 100.0 nM
[8] = target: High affinity nerve growth factor receptor (Homo sapiens) (UniProt P04629); settings: Compound concentration 100.0 nM
[9] = target: Kappa-type opioid receptor (Homo sapiens) (UniProt P41145); settings: Compound concentration 10.0 uM
[10] = target: Serine/threonine-protein kinase 26 (Homo sapiens) (UniProt Q9P289); settings: Compound concentration 100.0 nM
[11] = target: Misshapen-like kinase 1 (Homo sapiens) (UniProt Q8N4C8); settings: Compound concentration 100.0 nM
[12] = target: Mitogen-activated protein kinase kinase kinase 11 (Homo sapiens) (UniProt Q16584); settings: Compound concentration 100.0 nM
[13] = target: T2, Serine/threonine-protein kinase Nek1 (Homo sapiens) (UniProt Q96PY6); settings: Compound concentration 100.0 nM
T2 sequence (whole entry): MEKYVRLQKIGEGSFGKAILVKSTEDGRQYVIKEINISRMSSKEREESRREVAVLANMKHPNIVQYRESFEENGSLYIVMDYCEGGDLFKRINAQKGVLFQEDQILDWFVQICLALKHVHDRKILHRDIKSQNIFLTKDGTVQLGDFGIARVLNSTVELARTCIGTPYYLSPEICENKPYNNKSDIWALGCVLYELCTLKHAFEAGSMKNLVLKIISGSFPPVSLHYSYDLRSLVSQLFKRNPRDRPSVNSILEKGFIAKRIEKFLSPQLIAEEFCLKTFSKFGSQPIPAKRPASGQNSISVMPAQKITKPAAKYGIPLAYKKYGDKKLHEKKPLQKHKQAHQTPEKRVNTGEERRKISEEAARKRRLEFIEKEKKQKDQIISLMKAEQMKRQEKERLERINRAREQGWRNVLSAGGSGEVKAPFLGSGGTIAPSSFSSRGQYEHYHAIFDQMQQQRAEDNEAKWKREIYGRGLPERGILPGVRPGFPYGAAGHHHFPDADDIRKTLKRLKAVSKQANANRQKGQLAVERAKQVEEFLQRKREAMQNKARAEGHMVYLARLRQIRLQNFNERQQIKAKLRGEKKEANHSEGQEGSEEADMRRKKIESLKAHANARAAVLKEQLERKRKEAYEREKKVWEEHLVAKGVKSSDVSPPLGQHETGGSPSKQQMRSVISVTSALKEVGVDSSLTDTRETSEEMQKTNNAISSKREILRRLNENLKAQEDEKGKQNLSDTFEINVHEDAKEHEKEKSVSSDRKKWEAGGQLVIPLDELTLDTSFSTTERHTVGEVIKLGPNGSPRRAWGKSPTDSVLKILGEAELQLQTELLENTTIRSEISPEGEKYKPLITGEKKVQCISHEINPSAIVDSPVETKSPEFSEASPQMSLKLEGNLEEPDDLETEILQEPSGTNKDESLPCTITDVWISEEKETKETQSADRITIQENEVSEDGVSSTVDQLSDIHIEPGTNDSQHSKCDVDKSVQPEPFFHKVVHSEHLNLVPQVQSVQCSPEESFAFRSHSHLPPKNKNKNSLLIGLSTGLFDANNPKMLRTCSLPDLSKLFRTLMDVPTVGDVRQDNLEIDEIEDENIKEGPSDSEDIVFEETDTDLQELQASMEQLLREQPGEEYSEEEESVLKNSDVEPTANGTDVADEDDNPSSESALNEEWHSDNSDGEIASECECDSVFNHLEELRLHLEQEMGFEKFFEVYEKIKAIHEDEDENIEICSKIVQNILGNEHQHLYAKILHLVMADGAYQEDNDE

High affinity nerve growth factor receptor (Homo sapiens), sequence (P04629 33-796 limits assumed): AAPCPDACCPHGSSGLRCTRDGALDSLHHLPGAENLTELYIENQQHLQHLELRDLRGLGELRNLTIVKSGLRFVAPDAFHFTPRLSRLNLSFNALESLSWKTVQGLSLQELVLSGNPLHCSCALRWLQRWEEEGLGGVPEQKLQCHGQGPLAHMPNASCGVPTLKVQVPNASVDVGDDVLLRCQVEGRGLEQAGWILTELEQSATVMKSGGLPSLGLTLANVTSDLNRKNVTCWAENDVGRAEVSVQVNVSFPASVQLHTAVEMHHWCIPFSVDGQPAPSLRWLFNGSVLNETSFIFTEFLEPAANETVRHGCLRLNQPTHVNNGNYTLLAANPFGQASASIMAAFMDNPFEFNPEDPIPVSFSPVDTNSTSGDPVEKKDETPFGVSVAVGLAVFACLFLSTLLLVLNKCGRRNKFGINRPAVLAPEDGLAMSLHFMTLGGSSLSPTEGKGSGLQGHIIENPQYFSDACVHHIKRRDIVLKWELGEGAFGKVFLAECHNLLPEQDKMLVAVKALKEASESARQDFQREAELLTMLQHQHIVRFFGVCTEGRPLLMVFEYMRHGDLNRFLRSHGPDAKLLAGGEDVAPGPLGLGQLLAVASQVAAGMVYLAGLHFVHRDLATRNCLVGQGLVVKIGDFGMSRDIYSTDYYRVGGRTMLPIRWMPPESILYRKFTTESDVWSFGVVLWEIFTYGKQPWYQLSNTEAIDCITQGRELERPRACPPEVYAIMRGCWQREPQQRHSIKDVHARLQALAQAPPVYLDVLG
Mitogen-activated protein kinase kinase kinase 11 (Homo sapiens), sequence (Q16584 whole entry, looked up): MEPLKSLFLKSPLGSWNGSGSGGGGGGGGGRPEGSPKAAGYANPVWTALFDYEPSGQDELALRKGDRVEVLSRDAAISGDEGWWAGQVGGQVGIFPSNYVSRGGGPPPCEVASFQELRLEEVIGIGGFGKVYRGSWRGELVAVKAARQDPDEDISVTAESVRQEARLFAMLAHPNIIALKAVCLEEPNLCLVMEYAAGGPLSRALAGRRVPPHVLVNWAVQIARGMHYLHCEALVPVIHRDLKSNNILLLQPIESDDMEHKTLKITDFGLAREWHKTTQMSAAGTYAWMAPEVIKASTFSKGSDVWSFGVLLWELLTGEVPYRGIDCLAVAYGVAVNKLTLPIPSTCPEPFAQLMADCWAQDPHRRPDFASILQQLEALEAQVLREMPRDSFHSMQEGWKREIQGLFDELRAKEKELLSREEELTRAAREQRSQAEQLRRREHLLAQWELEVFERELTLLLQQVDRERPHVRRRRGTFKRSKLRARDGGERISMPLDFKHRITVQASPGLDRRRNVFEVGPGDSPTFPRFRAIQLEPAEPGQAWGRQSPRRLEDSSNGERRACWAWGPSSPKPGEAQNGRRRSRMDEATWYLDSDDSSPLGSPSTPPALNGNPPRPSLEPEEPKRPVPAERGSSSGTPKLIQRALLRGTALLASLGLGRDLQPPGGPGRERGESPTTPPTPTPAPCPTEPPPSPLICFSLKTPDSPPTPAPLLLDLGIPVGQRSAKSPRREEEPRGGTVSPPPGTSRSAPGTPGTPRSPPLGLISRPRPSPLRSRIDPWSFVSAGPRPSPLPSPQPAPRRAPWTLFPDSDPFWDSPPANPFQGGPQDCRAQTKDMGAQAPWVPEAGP
Calcium/calmodulin-dependent protein kinase type II subunit gamma (Homo sapiens), sequence (Q13555 whole entry): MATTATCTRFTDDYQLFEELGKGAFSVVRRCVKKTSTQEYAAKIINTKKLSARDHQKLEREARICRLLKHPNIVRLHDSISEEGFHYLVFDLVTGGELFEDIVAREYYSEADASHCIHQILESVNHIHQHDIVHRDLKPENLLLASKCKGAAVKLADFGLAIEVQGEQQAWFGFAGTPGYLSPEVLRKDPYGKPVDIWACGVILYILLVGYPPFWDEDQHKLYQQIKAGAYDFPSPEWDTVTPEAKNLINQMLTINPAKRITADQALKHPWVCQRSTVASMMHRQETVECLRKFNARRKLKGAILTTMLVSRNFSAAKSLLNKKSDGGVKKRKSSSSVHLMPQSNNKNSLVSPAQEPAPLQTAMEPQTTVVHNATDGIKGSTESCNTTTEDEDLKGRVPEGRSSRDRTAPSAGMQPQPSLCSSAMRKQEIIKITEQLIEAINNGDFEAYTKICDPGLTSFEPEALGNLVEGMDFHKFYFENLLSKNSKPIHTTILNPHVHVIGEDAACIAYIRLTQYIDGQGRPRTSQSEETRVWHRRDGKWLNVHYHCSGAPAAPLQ
Serine/threonine-protein kinase 26 (Homo sapiens), sequence (Q9P289 2-416 limits assumed): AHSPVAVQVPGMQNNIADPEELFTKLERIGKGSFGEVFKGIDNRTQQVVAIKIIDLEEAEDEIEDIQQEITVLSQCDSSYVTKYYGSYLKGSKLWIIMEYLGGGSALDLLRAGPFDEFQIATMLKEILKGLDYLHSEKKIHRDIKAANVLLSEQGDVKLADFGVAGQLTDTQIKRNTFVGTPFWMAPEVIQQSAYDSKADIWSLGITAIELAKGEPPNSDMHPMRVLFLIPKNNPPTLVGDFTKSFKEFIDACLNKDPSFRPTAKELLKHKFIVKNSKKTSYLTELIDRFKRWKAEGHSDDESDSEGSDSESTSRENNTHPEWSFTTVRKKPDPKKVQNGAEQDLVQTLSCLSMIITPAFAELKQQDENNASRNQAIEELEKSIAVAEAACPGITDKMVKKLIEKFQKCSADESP
Mitogen-activated protein kinase kinase kinase 15 (Homo sapiens), sequence (Q6ZN16 whole entry): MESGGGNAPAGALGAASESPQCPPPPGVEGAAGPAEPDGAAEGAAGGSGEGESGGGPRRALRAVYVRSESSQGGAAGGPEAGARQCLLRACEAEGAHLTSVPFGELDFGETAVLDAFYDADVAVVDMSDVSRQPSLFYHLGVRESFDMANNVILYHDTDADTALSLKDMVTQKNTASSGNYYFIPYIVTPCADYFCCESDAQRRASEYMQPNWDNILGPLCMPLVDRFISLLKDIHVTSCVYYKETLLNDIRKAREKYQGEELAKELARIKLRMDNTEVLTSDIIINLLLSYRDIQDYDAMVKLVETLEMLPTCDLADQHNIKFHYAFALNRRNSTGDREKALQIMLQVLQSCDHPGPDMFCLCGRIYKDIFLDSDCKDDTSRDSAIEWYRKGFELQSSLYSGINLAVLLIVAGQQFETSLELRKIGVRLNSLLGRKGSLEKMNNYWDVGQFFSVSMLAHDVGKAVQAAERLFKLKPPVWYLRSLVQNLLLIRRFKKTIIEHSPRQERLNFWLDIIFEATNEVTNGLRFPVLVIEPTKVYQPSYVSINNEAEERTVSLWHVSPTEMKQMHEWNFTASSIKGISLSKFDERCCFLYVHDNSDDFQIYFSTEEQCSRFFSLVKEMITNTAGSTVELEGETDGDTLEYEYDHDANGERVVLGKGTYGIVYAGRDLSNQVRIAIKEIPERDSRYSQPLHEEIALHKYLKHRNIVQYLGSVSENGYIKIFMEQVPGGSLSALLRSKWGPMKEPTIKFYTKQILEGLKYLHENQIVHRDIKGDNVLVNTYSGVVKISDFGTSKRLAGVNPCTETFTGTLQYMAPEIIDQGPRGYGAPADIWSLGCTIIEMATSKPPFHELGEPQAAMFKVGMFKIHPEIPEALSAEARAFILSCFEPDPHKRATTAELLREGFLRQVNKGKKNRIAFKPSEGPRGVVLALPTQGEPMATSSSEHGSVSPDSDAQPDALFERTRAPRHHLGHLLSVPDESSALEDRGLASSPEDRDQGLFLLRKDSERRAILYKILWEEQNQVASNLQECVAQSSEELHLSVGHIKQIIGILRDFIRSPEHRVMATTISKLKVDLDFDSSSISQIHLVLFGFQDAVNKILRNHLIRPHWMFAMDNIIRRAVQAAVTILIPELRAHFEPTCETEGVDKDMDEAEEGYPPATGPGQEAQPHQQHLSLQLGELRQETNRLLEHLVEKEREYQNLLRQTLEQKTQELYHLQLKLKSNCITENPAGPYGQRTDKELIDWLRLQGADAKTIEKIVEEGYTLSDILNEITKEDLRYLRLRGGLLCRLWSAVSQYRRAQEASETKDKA
Homeodomain-interacting protein kinase 4 (Homo sapiens), sequence (Q8NE63 whole entry): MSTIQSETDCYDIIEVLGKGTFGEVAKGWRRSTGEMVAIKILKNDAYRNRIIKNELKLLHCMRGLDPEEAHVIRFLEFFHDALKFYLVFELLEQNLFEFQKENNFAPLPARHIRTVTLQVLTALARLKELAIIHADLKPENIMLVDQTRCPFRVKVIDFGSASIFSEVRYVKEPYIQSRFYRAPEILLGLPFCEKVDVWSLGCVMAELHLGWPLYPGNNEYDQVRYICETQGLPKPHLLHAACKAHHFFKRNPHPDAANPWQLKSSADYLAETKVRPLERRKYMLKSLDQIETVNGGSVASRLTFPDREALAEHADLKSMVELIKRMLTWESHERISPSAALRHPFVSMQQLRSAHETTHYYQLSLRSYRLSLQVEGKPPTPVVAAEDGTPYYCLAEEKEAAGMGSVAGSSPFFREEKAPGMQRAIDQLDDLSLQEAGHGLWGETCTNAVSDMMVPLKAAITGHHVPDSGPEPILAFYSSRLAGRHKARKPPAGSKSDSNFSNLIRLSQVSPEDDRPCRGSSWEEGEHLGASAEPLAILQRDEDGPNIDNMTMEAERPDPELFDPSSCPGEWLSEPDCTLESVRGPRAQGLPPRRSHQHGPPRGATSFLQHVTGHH
Kappa-type opioid receptor (Homo sapiens), sequence (P41145 whole entry): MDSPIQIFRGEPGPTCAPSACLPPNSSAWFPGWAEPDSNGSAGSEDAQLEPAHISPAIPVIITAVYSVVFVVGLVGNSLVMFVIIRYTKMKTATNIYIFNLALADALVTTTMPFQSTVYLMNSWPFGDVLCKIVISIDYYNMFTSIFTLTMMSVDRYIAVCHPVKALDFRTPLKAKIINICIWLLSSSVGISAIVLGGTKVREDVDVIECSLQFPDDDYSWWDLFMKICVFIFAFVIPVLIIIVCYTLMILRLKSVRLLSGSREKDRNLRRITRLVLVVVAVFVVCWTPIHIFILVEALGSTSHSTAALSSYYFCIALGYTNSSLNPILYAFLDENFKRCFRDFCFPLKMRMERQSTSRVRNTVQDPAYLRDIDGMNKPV

Cn1nc(C(=O)NCc2ccc(C(=O)O)cc2)cc1-c1ccc2[nH]ccc2c1 [BI 4395]
inactive: residual activity [1] 89% | residual activity [2] 91% | residual activity [3] 100% | residual activity [4] 100% | residual activity [5] 83% | residual activity [6] 65% | residual activity [7] 98% | residual activity [8] 74% | inhibition [9] 16.8% | residual activity [10] 95% | residual activity [11] 95% | residual activity [12] 87% | residual activity [13] 100%

CCOC(=O)c1cc2cc(-c3cc(C(=O)NCc4ccc(C(=O)O)cc4)nn3C)ccc2[nH]1 [BI 4394]
inactive: residual activity [1] 90% | residual activity [2] 100% | residual activity [3] 98% | residual activity [4] 87% | residual activity [5] 100% | residual activity [6] 82% | residual activity [7] 84% | residual activity [8] 89% | inhibition [9] 27.2% | residual activity [10] 81% | residual activity [11] 94% | residual activity [12] 88% | residual activity [13] 100%
